Experiments:
[1] = system: HUMAN RSV-A (“LONG” STRAIN); assay: RSV-A assay (CPE, ATPlite) in Hep-2 cells; type: cell-based; details: human respiratory syncytial virus, 120 h, MOI 0.1, 5-day incubation
Text: Methods for RSV-A Assay Hep-2 cells, (originally derived from tumors grown in irradiated-cortisonised weanling rats that had been injected with epidermoid carcinoma tissue from the larynx of a person, but later found to be indistinguishable from HeLa cells by PCR DNA analysis), were used for the culturing of genotype A, “Long” strain RSV. Flasks were inoculated with RSV and viral stocks were collected once cytopathic effect (CPE) was greater than 90%. Viral stocks in 25% sucrose media were snap frozen using liquid nitrogen to increase viral stability. Viral stock titers were quantified by tissue culture infectious dose 50% (TCID50) using 8,000 cells per well and 3-fold viral dilutions across a 96-well plate, cultured for 4 days. Viral stock titers were also quantified by a plaque forming unit assay, as described elsewhere.
Following extensive parameter testing, the final assay is run as follows: Hep-2 cells are seeded into the inner 60 wells of a 96-well plate at 8,000 cells per well in a volume of 50 μL using Growth Media (DMEM without phenol red, 1% L-Glut, 1% Penn/Strep, 1% nonessential amino acids, 10% heat-inactivated FBS). 2-fold serial dilutions of control and test compounds are added to the wells in duplicate in a total volume of 25 μL. Viral stock is then added to the wells at a multiplicity of infection (MOI) of 0.1 in a volume of 25 μL, bringing the total volume of each well to 100 μL. The MOI is calculated using the PFU/mL, or TCID50 if unavailable. Each 96-well plate has a control column of 6 wells with cells and virus but no compound (negative control, max CPE), a column with cells but no compound or virus (positive control, minimum CPE), and a column with no cells or virus or compound (background plate/reagent control). The control wells with cells but no virus are given an additional 25 μL of growth media containing an equal quantity of sucrose as those wells receiving the viral stock in order to keep consistent in media and volume conditions. The outer wells of the plate are filled with 125 μL of moat media (DMEM, 1% Penn/Strep) to act as a thermal and evaporative moat around the test wells. Following a 5-day incubation period, the plates are read using ATPlite (50 uL added per well), which quantifies the amount of ATP (a measure of cell health) present in each well. Assay plates are read using the Envision luminometer. […] EC50 ranges are as follows: A<0.2 μM; B>0.2 μM.

hMPV A2 TN/94-49 = assay: HMPV antiviral assay Method 2 (LLC-MK2 cells with CP-100-356, ATP-Lite); type: cell-based; details: hMPV A2 TN/94-49, LLC-MK2 cells, 4 μM CP-100-356, Method 2
Description: In vitro HMPV antiviral activity was evaluated using the clinical isolate A2 strain TN 94-49 (obtained from Dr. John Williams, Vanderbilt University, Tennessee) and LLC-MK2 cells (Millipore Sigma CB_85062804), an immortalized kidney epithelial cell line from Macaca mulatta. Compounds were resuspended in dimethyl sulfoxide (DMSO) at 10 mM, serially diluted and added to a 384-well source plate. Subsequently, the compounds were diluted and transferred onto 384-well assay plates using the Echo-650 automated liquid handling system (Beckman Coulter, Indiana). The test compounds were assessed in duplicate at a top concentration of 200 nM followed by 2.5-fold serial dilutions to give a total of 10 concentration points. DMSO control wells were also included on the assay plates and were either infected or not, acting as positive and negative controls. A2 TN 94-49 virus infections were performed in-suspension with LLC-MK2 cells. The cells were washed twice with PBS and removed from the cell-culture flask with 0.25% trypsin-EDTA (Thermo Fisher Scientific, MA). The trypsin-EDTA was inactivated by resuspending in 2% fetal bovine serum (FBS) and OptiMEM (ThermoFisher Scientific, MA) containing 1% antibiotic-antimycotic. Cells were pelleted by centrifuging for 5 minutes at 800 rpm, the supernatant was removed, and cells were re-suspended and washed in PBS plus 100 μg/mL CaCl2). This step was performed twice. Cells were then re-suspended in serum-free (SF)-OptiMEM containing 4 μg/mL TPCK-Trypsin (Sigma Aldrich, MO), 1% antibiotic-antimycotic (ThermoFisher Scientific, MA), 100 μg/mL CaCl2), and 4 μM of CP-100-356, a P-glycoprotein inhibitor. Cells were counted and seeded at a density of 5,000 cells/well, 12.5 μL/well. Virus infections were done at a multiplicity of infection (MOI) of 0.16 with 12.5 μL added per well. Virus infections were performed in infection media which contained SF-OptiMEM, 100 μg/mL CaCl2) and 1% antibiotic-antimycotic. HMPV viral stocks are suspended in infection media+5% glycerol, thus an equal volume of infection media+5% glycerol was added to uninfected wells to equalize the final % glycerol across all wells of the assay plate. The final concentration of TPCK-trypsin was 2 μg/mL. The final concentration of CP-100-356 was 2 μM. The assay plates were incubated at 37° C., 5% CO2 for 7 days. After 7 days incubation, 12.5 μL of ATP-Lite (PerkinElmer, MA) was added to each well and the raw luminescence values were determined using the Envision 2104 (Perkin Elmer, MA). The average of the raw luminescence values for the cells and virus only positive control wells was subtracted from all conditions tested and the percent cell health was determined by dividing these values by the average of the cells only negative control wells. EC50 values were then calculated by non-linear regression using a four-parameter curve logistic equation. The curve fit model employed was XLFit Dose Response One Site Model 200: y=(A+(B/(1+((x/C)^D)))), where A is the minimum y value, B is the maximum y value, C is the log EC50value, and D is the slope factor.

Compound	EC50 [1] [nM]	EC50 (hMPV A2 TN/94-49) [nM]
COc1cc(C(=O)NC[C@@](O)(c2ccccc2)c2cc3c(c(-c4cc(F)c(F)cc4F)n2)OC[C@]3(C)C(N)=O)cc2cc(Cl)cnc12 [Example 198]	< 200	< 200
C[C@]1(C(N)=O)COc2c1cc([C@@](O)(CNC(=O)c1cc(OC3CC3)c3ncc(Cl)cc3c1)c1ccccc1)nc2-c1cc(Cl)c(F)cc1F [Example 196]	< 200	< 200
Cc1nc2ccc(C(=O)NC[C@@](O)(c3ccccc3)c3cc4c(c(-c5cc(F)c(F)cc5F)n3)OC[C@]4(C)C(N)=O)cc2o1 [Example 192]	< 200	< 200
COc1cc(C(=O)NC[C@@](O)(c2cccc(S(N)(=O)=O)c2)c2cc3c(c(-c4cc(Cl)c(F)cc4F)n2)OC[C@]3(C)C(N)=O)cc2cn(C3CC3)nc12 [Example 486]	< 200	> 200
COc1cc(C(=O)NC[C@@](O)(c2ccnc(C)c2)c2cc3c(c(-c4cc(Cl)c(F)cc4F)n2)OC[C@]3(C)C(N)=O)cc2cn(C3CC3)nc12 [Example 485]	< 200	< 200
COc1cc(C(=O)NC[C@@](O)(c2ccccc2)c2cc3c(c(-c4cc(Cl)c(F)cc4F)n2)OC[C@]3(C)C(N)=O)cc2cc(Cl)c(F)nc12 [Example 342]	< 200	> 200
C[C@]1(C(N)=O)COc2c1cc([C@@](O)(CNC(=O)c1cc(Cl)c3[nH]ncc3c1)c1ccccc1)nc2-c1cc(Cl)c(F)cc1F [Example 117]	< 200	> 200
COc1cc(C(=O)NC[C@@](O)(c2ccccc2)c2cc3c(c(-c4cc(C(F)(F)F)c(F)cc4F)n2)OC[C@]3(C)C(N)=O)cc2oc(C3CC3)nc12 [Example 305]	< 200	< 200
C[C@]1(C(N)=O)COc2c1cc([C@@](O)(CNC(=O)c1cc(OC3CC3)c3ncc(Cl)cc3c1)c1ccccc1)nc2-c1ccc(F)c(Cl)c1Cl [Example 313]	< 200	< 200
[2H]C([2H])([2H])NC(=O)[C@@]1(C)COc2c1cc([C@@](O)(CNC(=O)c1cc(OC)c3nn(C4(F)CC4)cc3c1)c1ccccc1)nc2-c1cc(Cl)c(F)cc1F [Example 109]	< 200	< 200
C[C@]1(C(N)=O)COc2c1cc([C@@](O)(CNC(=O)c1cc(OC3CC3)c3ncc(Cl)cc3c1)c1ccccc1)nc2-c1cc(F)c(F)cc1F [Example 197]	< 200	< 200
[2H]C([2H])([2H])NC(=O)[C@@]1(C)COc2c1cc([C@@](O)(CNC(=O)c1cc(OC)c3nc(C4CC4)oc3c1)c1ccccc1)nc2-c1cc(Cl)c(F)cc1F [Example 110]	< 200	< 200
COc1cc(C(=O)NC[C@@](O)(c2cccc(F)c2)c2cc3c(c(-c4cc(F)c(F)cc4C(N)=O)n2)OC[C@]3(C)C(N)=O)cc2cn(C3(F)CC3)nc12 [Example 405]	> 200	> 200
COc1cc(C(=O)NC[C@@](O)(c2cccc(C(C)=O)c2)c2cc3c(c(-c4cccc(Cl)c4Cl)n2)OC[C@]3(C)C(N)=O)cc2cn(C3CC3)nc12 [Example 493]	< 200	< 200
C[C@]1(C(N)=O)COc2c1cc([C@@](O)(CNC(=O)c1ccc3nc(C4CC4)oc3c1)c1ccccc1)nc2-c1cc(C(F)(F)F)c(F)cc1F [Example 307]	< 200	> 200

Source: patent publication US12358921B2, “Antiviral heterocyclic compounds” (priority 2022, dated 2025)
